Data on one compound can be found in publication PMC4090677 (Frontiers in Immunology, 2014).

The nature of the series: physchem. The following applies: pH 7.6, aqueous with cosolvent or surfactant or cyclodextrin, kinetic from dmso stock.

Bounds are passed on as bounds.

As a reminder, the solubility is how much of the substance goes into solution per volume. For `COc1ccccc1N1CCN(C(=O)c2ccc3c(c2)NC(=O)C(CSCc2ccccc2C)N3)CC1` (stereo not shown) [Compound 4], the solubility was no more than 50 µM.
